{"source": "PubChem BioAssay AID1963850", "about": "(Molecular Pharmacology Branch, DTP, NCI, 2024);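 note: spheroids exposed to drugs for seven days before reading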;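 for viability, T/C: 100% = DMSO vehicle control viability in luminescence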", "test_system": "192522-019-R-J2-PDC complex tumor spheroid viability", "test": "Anticancer human tumor 192522-019-R-J2-PDC patient-derived colon adenocarcinoma cell line growth inhibition [POLQ]", "conditions": "for IC50: curve of first compound; for viability, T/C: stronger effect = lower value", "summary_of_the_method": "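Growth inhibition in 3D: complex spheroids (tumor PDC, HUVEC, MSC) treated with POLQ inhibitor combinations; where Cmax unknown, highest tested concentration 10 microM, except SN-38 at 1 microM.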", "key": {"[1]": {"conditions": "second compound 0.0316 µM, first compound 0.0316 µM"}, "[2]": {"conditions": "second compound 0.0316 µM, first compound 0.1 µM"}, "[3]": {"conditions": "second compound 0.0316 µM, first compound 0.316 µM"}, "[4]": {"conditions": "second compound 0.0316 µM, first compound 1 µM"}, "[5]": {"conditions": "second compound 0.0316 µM, first compound 3.16 µM"}, "[6]": {"conditions": "second compound 0.0316 µM, first compound 10 µM"}, "[7]": {"conditions": "second compound 0.1 µM, first compound 0.0316 µM"}, "[8]": {"conditions": "second compound 0.1 µM, first compound 0.1 µM"}, "[9]": {"conditions": "second compound 0.1 µM, first compound 0.316 µM"}, "[10]": {"conditions": "second compound 0.1 µM, first compound 1 µM"}, "[11]": {"conditions": "second compound 0.1 µM, first compound 3.16 µM"}, "[12]": {"conditions": "second compound 0.1 µM, first compound 10 µM"}, "[13]": {"conditions": "second compound 0.316 µM, first compound 0.0316 µM"}, "[14]": {"conditions": "second compound 0.316 µM, first compound 0.1 µM"}, "[15]": {"conditions": "second compound 0.316 µM, first compound 0.316 µM"}, "[16]": {"conditions": "second compound 0.316 µM, first compound 1 µM"}, "[17]": {"conditions": "second compound 0.316 µM, first compound 3.16 µM"}, "[18]": {"conditions": "second compound 0.316 µM, first compound 10 µM"}, "[19]": {"conditions": "second compound 1 µM, first compound 0.0316 µM"}, "[20]": {"conditions": "second compound 1 µM, first compound 0.1 µM"}, "[21]": {"conditions": "second compound 1 µM, first compound 0.316 µM"}, "[22]": {"conditions": "second compound 1 µM, first compound 1 µM"}, "[23]": {"conditions": "second compound 1 µM, first compound 3.16 µM"}, "[24]": {"conditions": "second compound 1 µM, first compound 10 µM"}, "[25]": {"conditions": "second compound 3.16 µM, first compound 0.0316 µM"}, "[26]": {"conditions": "second compound 3.16 µM, first compound 0.1 µM"}, "[27]": {"conditions": "second compound 3.16 µM, first compound 0.316 µM"}, "[28]": {"conditions": "second compound 3.16 µM, first compound 1 µM"}, "[29]": {"conditions": "second compound 3.16 µM, first compound 3.16 µM"}, "[30]": {"conditions": "second compound 3.16 µM, first compound 10 µM"}, "[31]": {"conditions": "second compound 10 µM, first compound 0.0316 µM"}, "[32]": {"conditions": "second compound 10 µM, first compound 0.1 µM"}, "[33]": {"conditions": "second compound 10 µM, first compound 0.316 µM"}, "[34]": {"conditions": "second compound 10 µM, first compound 1 µM"}, "[35]": {"conditions": "second compound 10 µM, first compound 3.16 µM"}, "[36]": {"conditions": "second compound 10 µM, first compound 10 µM"}}}
{"smiles": "COc1ccc([C@@H](O)c2cc(-c3ncnc4cc(N5CCOCC5)ccc34)c(F)cc2Cl)nn1", "note": "+ COC1C(OC(N)=O)C(O)C(Oc2ccc3c(O)c(NC(=O)c4ccc(O)c(CC=C(C)C)c4)c(=O)oc3c2C)OC1(C)C", "values": [{"measurement": "IC50", "setting": "second compound 0.0316 µM", "value": "> 10", "unit": "µM"}, {"measurement": "IC50", "setting": "second compound 0.1 µM", "value": "> 10", "unit": "µM"}, {"measurement": "IC50", "setting": "second compound 0.316 µM", "value": "> 10", "unit": "µM"}, {"measurement": "IC50", "setting": "second compound 1 µM", "value": "> 10", "unit": "µM"}, {"measurement": "IC50", "setting": "second compound 3.16 µM", "value": "> 10", "unit": "µM"}, {"measurement": "IC50", "setting": "second compound 10 µM", "value": "> 10", "unit": "µM"}, {"measurement": "viability, T/C", "setting": "[1]", "value": 105, "unit": "%"}, {"measurement": "viability, T/C", "setting": "[2]", "value": 87.2, "unit": "%"}, {"measurement": "viability, T/C", "setting": "[3]", "value": 120, "unit": "%"}, {"measurement": "viability, T/C", "setting": "[4]", "value": 97.7, "unit": "%"}, {"measurement": "viability, T/C", "setting": "[5]", "value": 99.8, "unit": "%"}, {"measurement": "viability, T/C", "setting": "[6]", "value": 63.1, "unit": "%"}, {"measurement": "viability, T/C", "setting": "[7]", "value": 109, "unit": "%"}, {"measurement": "viability, T/C", "setting": "[8]", "value": 97.6, "unit": "%"}, {"measurement": "viability, T/C", "setting": "[9]", "value": 106, "unit": "%"}, {"measurement": "viability, T/C", "setting": "[10]", "value": 95.5, "unit": "%"}, {"measurement": "viability, T/C", "setting": "[11]", "value": 88.1, "unit": "%"}, {"measurement": "viability, T/C", "setting": "[12]", "value": 62.4, "unit": "%"}, {"measurement": "viability, T/C", "setting": "[13]", "value": 117, "unit": "%"}, {"measurement": "viability, T/C", "setting": "[14]", "value": 93.2, "unit": "%"}, {"measurement": "viability, T/C", "setting": "[15]", "value": 103, "unit": "%"}, {"measurement": "viability, T/C", "setting": "[16]", "value": 107, "unit": "%"}, {"measurement": "viability, T/C", "setting": "[17]", "value": 97.8, "unit": "%"}, {"measurement": "viability, T/C", "setting": "[18]", "value": 68.5, "unit": "%"}, {"measurement": "viability, T/C", "setting": "[19]", "value": 109, "unit": "%"}, {"measurement": "viability, T/C", "setting": "[20]", "value": 106, "unit": "%"}, {"measurement": "viability, T/C", "setting": "[21]", "value": 104, "unit": "%"}, {"measurement": "viability, T/C", "setting": "[22]", "value": 92.9, "unit": "%"}, {"measurement": "viability, T/C", "setting": "[23]", "value": 86.8, "unit": "%"}, {"measurement": "viability, T/C", "setting": "[24]", "value": 63.1, "unit": "%"}, {"measurement": "viability, T/C", "setting": "[25]", "value": 96, "unit": "%"}, {"measurement": "viability, T/C", "setting": "[26]", "value": 99.2, "unit": "%"}, {"measurement": "viability, T/C", "setting": "[27]", "value": 117, "unit": "%"}, {"measurement": "viability, T/C", "setting": "[28]", "value": 84.9, "unit": "%"}, {"measurement": "viability, T/C", "setting": "[29]", "value": 98.1, "unit": "%"}, {"measurement": "viability, T/C", "setting": "[30]", "value": 72.9, "unit": "%"}, {"measurement": "viability, T/C", "setting": "[31]", "value": 103, "unit": "%"}, {"measurement": "viability, T/C", "setting": "[32]", "value": 104, "unit": "%"}, {"measurement": "viability, T/C", "setting": "[33]", "value": 114, "unit": "%"}, {"measurement": "viability, T/C", "setting": "[34]", "value": 108, "unit": "%"}, {"measurement": "viability, T/C", "setting": "[35]", "value": 99.2, "unit": "%"}, {"measurement": "viability, T/C", "setting": "[36]", "value": 66.9, "unit": "%"}]}
{"smiles": "COc1cccc2c1C(=O)c1c(O)c3c(c(O)c1C2=O)CC(O)(C(=O)CO)CC3OC1CC(N)C(O)C(C)O1", "note": "(centres undefined) + COC1C(OC(N)=O)C(O)C(Oc2ccc3c(O)c(NC(=O)c4ccc(O)c(CC=C(C)C)c4)c(=O)oc3c2C)OC1(C)C", "values": [{"measurement": "IC50", "setting": "second compound 0.0316 µM", "value": "> 10", "unit": "µM"}, {"measurement": "IC50", "setting": "second compound 0.1 µM", "value": "> 10", "unit": "µM"}, {"measurement": "IC50", "setting": "second compound 0.316 µM", "value": "> 10", "unit": "µM"}, {"measurement": "IC50", "setting": "second compound 1 µM", "value": "> 10", "unit": "µM"}, {"measurement": "IC50", "setting": "second compound 3.16 µM", "value": "> 10", "unit": "µM"}, {"measurement": "IC50", "setting": "second compound 10 µM", "value": "> 10", "unit": "µM"}, {"measurement": "viability, T/C", "setting": "[1]", "value": 94.3, "unit": "%"}, {"measurement": "viability, T/C", "setting": "[2]", "value": 79.1, "unit": "%"}, {"measurement": "viability, T/C", "setting": "[3]", "value": 64.9, "unit": "%"}, {"measurement": "viability, T/C", "setting": "[4]", "value": 78.1, "unit": "%"}, {"measurement": "viability, T/C", "setting": "[5]", "value": 65.2, "unit": "%"}, {"measurement": "viability, T/C", "setting": "[6]", "value": 55.3, "unit": "%"}, {"measurement": "viability, T/C", "setting": "[7]", "value": 104, "unit": "%"}, {"measurement": "viability, T/C", "setting": "[8]", "value": 84.4, "unit": "%"}, {"measurement": "viability, T/C", "setting": "[9]", "value": 65.6, "unit": "%"}, {"measurement": "viability, T/C", "setting": "[10]", "value": 78.4, "unit": "%"}, {"measurement": "viability, T/C", "setting": "[11]", "value": 61.2, "unit": "%"}, {"measurement": "viability, T/C", "setting": "[12]", "value": 55.2, "unit": "%"}, {"measurement": "viability, T/C", "setting": "[13]", "value": 98.2, "unit": "%"}, {"measurement": "viability, T/C", "setting": "[14]", "value": 86.4, "unit": "%"}, {"measurement": "viability, T/C", "setting": "[15]", "value": 61.3, "unit": "%"}, {"measurement": "viability, T/C", "setting": "[16]", "value": 79.3, "unit": "%"}, {"measurement": "viability, T/C", "setting": "[17]", "value": 61.9, "unit": "%"}, {"measurement": "viability, T/C", "setting": "[18]", "value": 55.6, "unit": "%"}, {"measurement": "viability, T/C", "setting": "[19]", "value": 104, "unit": "%"}, {"measurement": "viability, T/C", "setting": "[20]", "value": 92.8, "unit": "%"}, {"measurement": "viability, T/C", "setting": "[21]", "value": 68.7, "unit": "%"}, {"measurement": "viability, T/C", "setting": "[22]", "value": 76.3, "unit": "%"}, {"measurement": "viability, T/C", "setting": "[23]", "value": 71, "unit": "%"}, {"measurement": "viability, T/C", "setting": "[24]", "value": 53.1, "unit": "%"}, {"measurement": "viability, T/C", "setting": "[25]", "value": 101, "unit": "%"}, {"measurement": "viability, T/C", "setting": "[26]", "value": 85.5, "unit": "%"}, {"measurement": "viability, T/C", "setting": "[27]", "value": 69.5, "unit": "%"}, {"measurement": "viability, T/C", "setting": "[28]", "value": 73, "unit": "%"}, {"measurement": "viability, T/C", "setting": "[29]", "value": 67, "unit": "%"}, {"measurement": "viability, T/C", "setting": "[30]", "value": 54.7, "unit": "%"}, {"measurement": "viability, T/C", "setting": "[31]", "value": 102, "unit": "%"}, {"measurement": "viability, T/C", "setting": "[32]", "value": 87.4, "unit": "%"}, {"measurement": "viability, T/C", "setting": "[33]", "value": 66.5, "unit": "%"}, {"measurement": "viability, T/C", "setting": "[34]", "value": 78, "unit": "%"}, {"measurement": "viability, T/C", "setting": "[35]", "value": 70.8, "unit": "%"}, {"measurement": "viability, T/C", "setting": "[36]", "value": 58.6, "unit": "%"}]}
